According to ChEMBL document CHEMBL4414613, “Antibacterial 5α-Spirostane Saponins from the Fruit of Cordyline manners-suttoniae” (J Nat Prod, 2019):
≈ marks a conversion by molar mass, not a printed value. Calls of active or inactive are those of the source. The rule behind the calls is not given here.

Columns and labels:
[1] = tested on: Enterococcus faecium; assay: Bactericidal activity against Enterococcus faecium ATCC 35667 at 90 uM incubated for 24 hrs by microdilution assay; type: functional, organism-based
[2] = tested on: Staphylococcus aureus; assay: Bactericidal activity against Staphylococcus aureus ATCC 25923 at 90 uM incubated for 24 hrs by microdilution assay; type: functional, organism-based
[3] = tested on: Enterococcus faecium; assay: Bactericidal activity against Enterococcus faecium C15 at 90 uM incubated for 24 hrs by microdilution assay; type: functional, organism-based
[4] = tested on: Enterococcus faecium; assay: Antibacterial activity against Enterococcus faecium ATCC 35667 incubated for 24 hrs by microdilution assay; type: functional
[5] = tested on: Staphylococcus aureus; assay: Antibacterial activity against Staphylococcus aureus ATCC 25923 incubated for 24 hrs by microdilution assay; type: functional
[6] = tested on: Staphylococcus aureus; assay: Antibacterial activity against Staphylococcus aureus ATCC 29247 incubated for 24 hrs by microdilution assay; type: functional
[7] = tested on: Staphylococcus aureus; assay: Bactericidal activity against Staphylococcus aureus ATCC 29247 at 90 uM incubated for 24 hrs by microdilution assay; type: functional, organism-based
[8] = tested on: Enterococcus faecium; assay: Antibacterial activity against Enterococcus faecium C15 incubated for 24 hrs by microdilution assay; type: functional
[9] = tested on: Acinetobacter baumannii; assay: Bactericidal activity against Acinetobacter baumannii ATCC 17978 at 90 uM incubated for 24 hrs by microdilution assay; type: functional, organism-based
[10] = tested on: Enterococcus faecium; assay: Bactericidal activity against Enterococcus faecium ATCC 35667 up to 86.8 uM incubated for 24 hrs by microdilution assay; type: functional, organism-based
[11] = tested on: Klebsiella pneumoniae; assay: Bactericidal activity against Klebsiella pneumoniae ATCC 13883 at 90 uM incubated for 24 hrs by microdilution assay; type: functional, organism-based
[12] = tested on: Enterobacter cloacae subsp. cloacae; assay: Antibacterial activity against Enterobacter cloacae ATCC 13047 at 90 uM incubated for 24 hrs by microdilution assay; type: functional
[13] = tested on: Pseudomonas aeruginosa; assay: Antibacterial activity against Pseudomonas aeruginosa ATCC 10145 at 90 uM incubated for 24 hrs by microdilution assay; type: functional, organism-based
[14] = tested on: Klebsiella aerogenes; assay: Bactericidal activity against Enterobacter aerogenes ATCC 13048 at 90 uM incubated for 24 hrs by microdilution assay; type: functional
[15] = tested on: Acinetobacter baumannii; assay: Antibacterial activity against Acinetobacter baumannii ATCC 19606 at 90 uM incubated for 24 hrs by microdilution assay; type: functional, organism-based; details: ATCC 19606 = CIP 70.34 = JCM 6841
[16] = tested on: Pseudomonas aeruginosa; assay: Bactericidal activity against Pseudomonas aeruginosa ATCC 10145 at 90 uM incubated for 24 hrs by microdilution assay; type: functional, organism-based
[17] = Selectivity ratio of IC50 for human HaCaT cells to IC50 for human HDF cells by CellTiter 96 aqueous one solution assay
[18] = tested on: Klebsiella aerogenes; assay: Antibacterial activity against Enterobacter aerogenes ATCC 13048 at 90 uM incubated for 24 hrs by microdilution assay; type: functional
[19] = tested on: Staphylococcus aureus; assay: Bactericidal activity against Staphylococcus aureus ATCC 25923 up to 86.8 uM incubated for 24 hrs by microdilution assay; type: functional, organism-based
[20] = tested on: Enterococcus faecium; assay: Bactericidal activity against Enterococcus faecium C15 up to 86.8 uM incubated for 24 hrs by microdilution assay; type: functional, organism-based
[21] = tested on: Staphylococcus aureus; assay: Bactericidal activity against Staphylococcus aureus ATCC 29247 up to 86.8 uM incubated for 24 hrs by microdilution assay; type: functional, organism-based
[22] = tested on: NHDF; assay: Cytotoxicity against human HDF cells assessed as reduction in cell viability incubated for 7 days by CellTiter 96 aqueous one solution assay; type: functional, cell-based; details: 168 h
[23] = tested on: Acinetobacter baumannii; assay: Antibacterial activity against Acinetobacter baumannii ATCC 17978 at 90 uM incubated for 24 hrs by microdilution assay; type: functional, organism-based
[24] = tested on: Klebsiella pneumoniae; assay: Antibacterial activity against Klebsiella pneumoniae ATCC 12657 at 90 uM incubated for 24 hrs by microdilution assay; type: functional, organism-based
[25] = tested on: Klebsiella pneumoniae; assay: Antibacterial activity against Klebsiella pneumoniae ATCC 13883 at 90 uM incubated for 24 hrs by microdilution assay; type: functional, organism-based
[26] = tested on: HaCaT; assay: Cytotoxicity against human HaCaT cells assessed as reduction in cell viability incubated for 4 days by CellTiter 96 aqueous one solution assay; type: cell-based; details: 96 h
[27] = tested on: Acinetobacter baumannii; assay: Bactericidal activity against Acinetobacter baumannii ATCC 19606 at 90 uM incubated for 24 hrs by microdilution assay; type: functional, organism-based; details: ATCC 19606 = CIP 70.34 = JCM 6841
[28] = tested on: Enterobacter cloacae subsp. cloacae; assay: Bactericidal activity against Enterobacter cloacae ATCC 13047 at 90 uM incubated for 24 hrs by microdilution assay; type: functional
[29] = tested on: Pseudomonas aeruginosa; assay: Antibacterial activity against Pseudomonas aeruginosa ATCC 49189 at 90 uM incubated for 24 hrs by microdilution assay; type: functional, organism-based
[30] = tested on: Pseudomonas aeruginosa; assay: Bactericidal activity against Pseudomonas aeruginosa ATCC 49189 at 90 uM incubated for 24 hrs by microdilution assay; type: functional, organism-based
[31] = tested on: Klebsiella pneumoniae; assay: Bactericidal activity against Klebsiella pneumoniae ATCC 12657 at 90 uM incubated for 24 hrs by microdilution assay; type: functional, organism-based
[32] = tested on: Staphylococcus aureus; assay: Antibacterial activity against Staphylococcus aureus ATCC 29247 at 90 uM incubated for 24 hrs by microdilution assay; type: functional, organism-based
[33] = tested on: Enterococcus faecium; assay: Antibacterial activity against Enterococcus faecium ATCC 35667 at 90 uM incubated for 24 hrs by microdilution assay; type: functional, organism-based
[34] = tested on: Staphylococcus aureus; assay: Antibacterial activity against Staphylococcus aureus ATCC 25923 at 90 uM incubated for 24 hrs by microdilution assay; type: functional, organism-based
[35] = tested on: Enterococcus faecium; assay: Bactericidal activity against Enterococcus faecium ATCC 35667 incubated for 24 hrs by microdilution assay; type: functional; details: ATCC 35667, 24 h
[36] = tested on: Enterococcus faecium; assay: Bactericidal activity against Enterococcus faecium C15 incubated for 24 hrs by microdilution assay; type: functional; details: C15, 24 h
[37] = tested on: HaCaT; assay: Cytotoxicity against human HaCaT cells assessed as reduction in cell viability at 100 uM incubated for 4 days by CellTiter 96 aqueous one solution assay; type: cell-based; details: 96 h
[38] = tested on: NHDF; assay: Cytotoxicity against human HDF cells assessed as reduction in cell viability at 100 uM incubated for 7 days by CellTiter 96 aqueous one solution assay; type: functional, cell-based
[39] = tested on: Enterococcus faecium; assay: Antibacterial activity against Enterococcus faecium C15 at 90 uM incubated for 24 hrs by microdilution assay; type: functional, organism-based

| Compound | Activity [1] | Activity [2] | Activity [7] | Activity [9] | Activity [11] | Activity [12] | Activity [13] | Activity [14] | Activity [15] | Activity [16] | Ratio IC50 [17] | Activity [18] | Activity [23] | Activity [24] | Activity [25] | Activity [27] | Activity [28] | Activity [29] | Activity [30] | Activity [31] | also measured |
| --- | --- | --- | --- | --- | --- | --- | --- | --- | --- | --- | --- | --- | --- | --- | --- | --- | --- | --- | --- | --- | --- |
| O=C(N[C@H](CO)[C@H](O)c1ccc([N+](=O)[O-])cc1)C(Cl)Cl [CHLORAMPHENICOL] | inactive | inactive | inactive |  |  |  |  |  |  |  |  |  |  |  |  |  |  |  |  |  | Activity [3]: inactive; MIC75 [4]: 9.7 µM (≈ 3.13 µg/mL); MIC75 [5]: 9.7 µM (≈ 3.13 µg/mL); MIC75 [6]: 9.7 µM (≈ 3.13 µg/mL); MIC75 [8]: 9.7 µM (≈ 3.13 µg/mL) |
| C=C1CC[C@]2(OC1)O[C@H]1C[C@H]3[C@@H]4CC[C@H]5C[C@@H](O)C[C@@H](O[C@@H]6O[C@H](C)[C@H](O)[C@H](O)[C@H]6O)[C@]5(C)[C@H]4CC[C@]3(C)[C@H]1[C@@H]2C | inactive | inactive | inactive | inactive | inactive | inactive | inactive | inactive | inactive | inactive | 3 - 11 | inactive | inactive | inactive | inactive | inactive | inactive | inactive | inactive | inactive | Activity [10]: inactive; Activity [3]: inactive; Activity [19]: inactive; Activity [20]: inactive; Activity [21]: inactive; IC50 [22]: 4.2 µM; MIC75 [4]: 21.7 µM (≈ 12.5 µg/mL); MIC75 [5]: 5.4 µM (≈ 3.11 µg/mL); IC50 [26]: 23.9 µM; MIC75 [6]: 5.4 µM (≈ 3.11 µg/mL); MIC75 [8]: 21.7 µM (≈ 12.5 µg/mL) |
| C=C1CC[C@]2(OC1)O[C@H]1C[C@H]3[C@@H]4CC[C@H]5[C@H](O)[C@H](O)C[C@@H](O[C@@H]6O[C@H](C)[C@H](O)[C@H](O)[C@H]6O)[C@]5(C)[C@H]4CC[C@]3(C)[C@H]1[C@@H]2C | inactive | inactive | inactive | inactive | inactive | inactive | inactive | inactive | inactive | inactive | 3 - 11 | inactive | inactive | inactive | inactive | inactive | inactive | inactive | inactive | inactive | Activity [32]: inactive; Activity [3]: inactive; Activity [33]: inactive; IC50 [22]: 16.5 µM; IC50 [26]: 47.4 µM; Activity [34]: inactive; MIC75 [8]: 84.3 µM (≈ 50 µg/mL) |
| C[C@@H]1CC[C@]2(OC1)O[C@H]1C[C@H]3[C@@H]4CC[C@H]5C[C@H](O)C[C@@H](O[C@@H]6O[C@H](C)[C@H](O)[C@H](O)[C@H]6O)[C@]5(C)[C@H]4CC[C@]3(C)[C@H]1[C@@H]2C |  | inactive | inactive | inactive | inactive | inactive | inactive | inactive | inactive | inactive | 3 - 11 | inactive | inactive | inactive | inactive | inactive | inactive | inactive | inactive | inactive | MBC [35]: 86.4 µM (≈ 50 µg/mL); IC50 [22]: 7.5 µM; MIC75 [4]: 43.2 µM (≈ 25 µg/mL); MIC75 [5]: 43.2 µM (≈ 25 µg/mL); IC50 [26]: 36.5 µM; MIC75 [6]: 43.2 µM (≈ 25 µg/mL); MBC [36]: 86.4 µM (≈ 50 µg/mL); MIC75 [8]: 43.2 µM (≈ 25 µg/mL) |
| C=C1CC[C@]2(OC1)O[C@H]1C[C@H]3[C@@H]4CC[C@H]5C[C@H](O)C[C@@H](O[C@@H]6O[C@H](C)[C@H](O)[C@H](O)[C@H]6O)[C@]5(C)[C@H]4CC[C@]3(C)[C@H]1[C@@H]2C |  | inactive | inactive | inactive | inactive | inactive | inactive | inactive | inactive | inactive | 3 - 11 | inactive | inactive | inactive | inactive | inactive | inactive | inactive | inactive | inactive | MBC [35]: 86.4 µM (≈ 49.8 µg/mL); IC50 [22]: 8.3 µM; MIC75 [4]: 43.3 µM (≈ 25 µg/mL); MIC75 [5]: 21.7 µM (≈ 12.5 µg/mL); IC50 [26]: 38.9 µM; MIC75 [6]: 21.7 µM (≈ 12.5 µg/mL); MBC [36]: 86.4 µM (≈ 49.8 µg/mL); MIC75 [8]: 21.7 µM (≈ 12.5 µg/mL) |
| C[C@@H]1CC[C@]2(OC1)O[C@H]1C[C@H]3[C@@H]4CC[C@H]5C[C@@H](O)C[C@@H](O[C@@H]6OC[C@H](O)[C@H](O)[C@H]6O)[C@]5(C)[C@H]4CC[C@]3(C)[C@H]1[C@@H]2C | inactive | inactive | inactive | inactive | inactive | inactive | inactive | inactive | inactive | inactive | 3 - 11 | inactive | inactive | inactive | inactive | inactive | inactive | inactive | inactive | inactive | Activity [32]: inactive; Activity [3]: inactive; Activity [37]: Not Active; Activity [33]: inactive; Activity [38]: inactive; Activity [34]: inactive; Activity [39]: inactive |
| C=C1CC[C@]2(OC1)O[C@H]1C[C@H]3[C@@H]4CC[C@H]5C[C@@H](O)C[C@@H](O[C@@H]6OC[C@H](O)[C@H](O)[C@H]6O)[C@]5(C)[C@H]4CC[C@]3(C)[C@H]1[C@@H]2C | inactive | inactive | inactive | inactive | inactive | inactive | inactive | inactive | inactive | inactive | 3 - 11 | inactive | inactive | inactive | inactive | inactive | inactive | inactive | inactive | inactive | Activity [32]: inactive; Activity [3]: inactive; Activity [37]: Not Active; Activity [33]: inactive; Activity [38]: inactive; Activity [34]: inactive; Activity [39]: inactive |
